The values that follow come from patent publication US9266876B2 (Actelion Pharmaceuticals Ltd., priority 2012, dated 2016).

Structures are written as SMILES.

Assay [1] deals with human CXCR3A (Homo sapiens (Human), UniProt P49682). The assay can be described thus: FLIPR assay. The class given is cell-based. The note with it: CHO-K1 cells expressing the human CXCR3A coupled to Galpha(16); CXCL10 agonist 20 nM; Fluo-4-AM fluorescence; mean values if determined several times. A digest of the protocol:
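CHO-K1 cells expressing CXCR3A coupled to Gα16 were loaded with Fluo-4-AM for 1 h in Hepes-buffered HBSS, pH 7.4, with 5 mM probenecid. Compound dilutions were added on the FLIPR, followed by CXCL10 (added as a 20 nM solution). Baseline-subtracted peak fluorescence was fitted to a single-site curve for IC50.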

The target of assay [2] is CXCR3 (Homo sapiens (Human), UniProt P49682). As to the kind of experiment: Receptor internalization assay. The class given is cell-based. The note with it: human whole blood; final CXCL10 concentration 9 nM; 30 min 37° C.; CXCR3 cell surface expression on CD3 positive cells, flow cytometer; read-out: Internalization IC50. The procedure:
B): Receptor Internalization Assay:
Stock solutions of test compounds are made up at a concentration of 10 mM in DMSO, and serially diluted in PBS containing 0.5% BSA to concentrations required for inhibition dose response curves. Diluted compounds are then mixed with an equal volume of CXCL10 (Peprotech) diluted in PBS. Anticoagulated venous human whole blood is added to the mixture, which is then incubated in a CO2 incubator at 37° C. to allow for ligand mediated receptor internalization (final CXCL10 concentration is 9 nM). After 30′, the blood is mixed with fluorescently labeled CXCR3 and CD3 specific antibodies (Becton Dickinson) and incubated on ice for 10 minutes. Samples are then mixed with BD FACS Lysing Solution (Becton Dickinson) in order to eliminate red blood cells. After washing the cells with PBS containing 0.5% BSA, the samples are then analyzed in a flow cytometer (FACS Canto II, Becton Dickinson). For data analysis using FACSDiva software (Becton Dickinson), the mean fluorescence corresponding to CXCR3 cell surface expression was determined on CD3 positive cells. The program GraphPad Prism is used to fit the data to a single site dose response curve and to calculate IC50 values.
A general note: A flow cytometer gives signals particle by particle.

CXCR3, sequence (P49682 whole entry): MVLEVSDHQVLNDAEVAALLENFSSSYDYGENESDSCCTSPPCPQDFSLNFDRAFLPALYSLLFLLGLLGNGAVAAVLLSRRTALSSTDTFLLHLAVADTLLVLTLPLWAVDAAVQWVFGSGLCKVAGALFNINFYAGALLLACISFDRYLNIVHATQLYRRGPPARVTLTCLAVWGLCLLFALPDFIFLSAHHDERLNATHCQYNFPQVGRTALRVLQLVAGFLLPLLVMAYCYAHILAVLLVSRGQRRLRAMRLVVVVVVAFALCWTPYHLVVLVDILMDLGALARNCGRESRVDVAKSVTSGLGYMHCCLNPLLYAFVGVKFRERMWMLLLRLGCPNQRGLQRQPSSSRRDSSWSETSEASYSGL
human CXCR3A, sequence (P49682 whole entry): as above

As to `C[C@@H]1CN(c2scnc2-c2nc3ccccc3[nH]2)CCN1C(=O)Cc1cccc2cccnc12` [Example 119, 1-{(R)-4-[4-(1H-Benzoimidazol-2-yl)-thiazol-5-yl]-2-methyl-piperazin-1-yl}-2-quinolin-8-yl-ethanone], the IC50 amounted to 0.002 µM in assay [1] and 2.45 µM in assay [2].
Take `C[C@@H]1CN(c2sc(Br)nc2-c2nc3ccccc3[nH]2)CCN1C(=O)Cn1cnc2cccnc21` [Example 80, 1-{(R)-4-[4-(1H-Benzoimidazol-2-yl)-2-bromo-thiazol-5-yl]-2-methyl-piperazin-1-yl}-2-imidazo[4,5-b]pyridin-3-yl-ethanone]: the IC50 in assay [1] amounted to 0.001 µM; in assay [2], 0.459 µM.
As to `Cc1cc(CC(=O)N2CCN(c3sc(C(F)(F)F)nc3-c3nc4ccccc4[nH]3)C[C@H]2C)cc(C)n1` [Example 219], the IC50 in assay [1] came out at 0.004 µM; in assay [2], 1.46 µM.
In the case of `Cc1cccc2oc(=O)n(CC(=O)N3CCN(c4scnc4-c4nc5ccccc5[nH]4)C[C@H]3C)c12` [Example 152, 3-(2-{(R)-4-[4-(1H-Benzoimidazol-2-yl)-thiazol-5-yl]-2-methyl-piperazin-1-yl}-2-oxo-ethyl)-4-methyl-3H-benzooxazol-2-one], the IC50 in assay [1] turned out to be 0.003 µM; in assay [2], 0.663 µM.
In the case of `COC[C@H]1CN(c2scnc2-c2nc3ccccc3[nH]2)CCN1C(=O)Cn1ccc2cccnc21` [Example 19, 1-{(R)-4-[4-(1H-Benzoimidazol-2-yl)-thiazol-5-yl]-2-methoxymethyl-piperazin-1-yl}-2-pyrrolo[2,3-b]pyridin-1-yl-ethanone], the results for the IC50 in assay [1] and in assay [2] were 0.025 µM and 0.875 µM, respectively.
For `COCCOc1ccc2[nH]c(-c3nc(C(F)(F)F)sc3N3CCN(C(=O)Cn4cnc5cccnc54)[C@H](C)C3)nc2c1` [Example 163, 2-Imidazo[4,5-b]pyridin-3-yl-1-((R)-4-{4-[5-(2-methoxy-ethoxy)-1H-benzoimidazol-2-yl]-2-trifluoromethyl-thiazol-5-yl}-2-methyl-piperazin-1-yl)-ethanone], in that order: 0.005 µM and 0.047 µM.
For `C[C@@H]1CN(c2sc(C(F)(F)F)nc2-c2nc3ccc(N(C)C)cc3[nH]2)CCN1C(=O)Cn1cccn1` [Example 180, 1-{(R)-4-[4-(6-Dimethylamino-1H-benzoimidazol-2-yl)-2-trifluoromethyl-thiazol-5-yl]-2-methyl-piperazin-1-yl}-2-pyrazol-1-yl-ethanone], in that order: 0.002 µM and 0.703 µM.
The corresponding values for `Cc1cc(C)n(CC(=O)N2CCN(c3sc(C(F)(F)F)nc3-c3nc4ccccc4[nH]3)C[C@H]2C)n1` [Example 192, 1-{(R)-4-[4-(1H-Benzoimidazol-2-yl)-2-trifluoromethyl-thiazol-5-yl]-2-methyl-piperazin-1-yl}-2-(3,5-dimethyl-pyrazol-1-yl)-ethanone] are 0.001 µM and 0.116 µM.
In the case of `C[C@@H]1CN(c2sc(C(F)(F)F)nc2-c2nc3cncnc3[nH]2)CCN1C(=O)Cn1cnc2cccnc21` [Example 171, 2-Imidazo[4,5-b]pyridin-3-yl-1-{(R)-2-methyl-4-[4-(9H-purin-8-yl)-2-trifluoromethyl-thiazol-5-yl]-piperazin-1-yl}-ethanone], the IC50 was determined as 0.001 µM in assay [1] and 1.08 µM in assay [2].
As to `Cc1nc(C)n(CC(=O)N2CCN(c3sc(C(F)(F)F)nc3-c3nc4cc(OC(F)(F)F)ccc4[nH]3)C[C@H]2C)n1` [Example 241, 2-(3,5-Dimethyl-[1,2,4]triazol-1-yl)-1-{(R)-2-methyl-4-[4-(5-trifluoromethoxy-1H-benzoimidazol-2-yl)-2-trifluoromethyl-thiazol-5-yl]-piperazin-1-yl}-ethanone], the IC50 came out at 0.002 µM in assay [1] and 0.169 µM in assay [2].
For `C[C@@H]1CN(c2scnc2-c2nc3ccccc3[nH]2)CCN1C(=O)Cn1ccc2ccncc21` [Example 141, 1-{(R)-4-[4-(1H-Benzoimidazol-2-yl)-thiazol-5-yl]-2-methyl-piperazin-1-yl}-2-pyrrolo[2,3-c]pyridin-1-yl-ethanone], in that order: 0.0002 µM and 0.363 µM.

As a reminder, the IC50 is the concentration that gives 50% inhibition.
